According to patent publication US6399654B1, “Biflavanoids and derivatives thereof as antiviral agents” (priority 1995, dated 2002):
≈ marks a conversion by molar mass, not a printed value. Where two headings read alike, the source gives them in different places.

Experiments:
[1] = tested on: Influenza A (H1N1) Texas/36/91; test: microbe, parasite or virus in culture; format: cell-based, influenza A virus; conditions: Influenza A virus, MDCK; Influenza A (H1N1) Texas/36/91; read-out: CPE Inhibition EC50
[2] = tested on: Influenza A (H1N1) Texas/36/91; test: microbe, parasite or virus in culture; format: cell-based, influenza A virus; conditions: Influenza A virus, MDCK; Influenza A (H1N1) Texas/36/91; read-out: Neutral Red EC50
[3] = tested on: Influenza A (H3N2) Beijing/32/92; test: microbe, parasite or virus in culture; format: cell-based, influenza A virus; conditions: Influenza A virus, MDCK; Influenza A (H3N2) Beijing/32/92; read-out: CPE Inhibition EC50
[4] = tested on: Influenza A (H3N2) Beijing/32/92; test: microbe, parasite or virus in culture; format: cell-based, influenza A virus; conditions: Influenza A virus, MDCK; Influenza A (H3N2) Beijing/32/92; read-out: Neutral Red EC50
Influenza B Panama/45/90 = test: microbe, parasite or virus in culture; format: cell-based; conditions: Influenza B virus, MDCK; Influenza B Panama/45/90; read-out: CPE Inhibition EC50
Measles Virus [5] = test: microbe, parasite or virus in culture; format: cell-based; conditions: Measles morbillivirus, BSC-1; Measles Virus; read-out: CPI Inhibition EC50
Measles Virus [6] = test: Measles virus neutral red dye uptake in BSC-1 cells; format: cell-based; conditions: Measles morbillivirus, BSC-1
Adenovirus Type 5 [7] = test: microbe, parasite or virus in culture; format: cell-based; conditions: Human mastadenovirus C, A549, read-out: CPE Inhibition EC50
Adenovirus Type 5 [8] = test: Adenovirus type 5 neutral red dye uptake in A549 cells; format: cell-based; conditions: Human mastadenovirus C, A549; Adenovirus Type 5; read-out: Neutral Red EC50
[9] = tested on: Parainfluenza Type 3 Virus; test: organism not typed; format: cell-based; conditions: MA104; Parainfluenza Type 3 Virus; read-out: CPI Inhibition EC50
[10] = tested on: Parainfluenza Type 3 Virus; test: organism not typed; format: cell-based; conditions: MA104, read-out: Neutral Red EC50
[11] = tested on: Respiratory Syncytial Virus; test: microbe, parasite or virus in culture; format: cell-based; conditions: human respiratory syncytial virus, MA104; read-out: CPE Inhibition EC50
[12] = tested on: Respiratory Syncytial Virus; test: microbe, parasite or virus in culture; format: cell-based; conditions: human respiratory syncytial virus, MA104; read-out: Neutral Red EC50
HIV-1 RT = molecular target: T1, HIV-1 RT (Human immunodeficiency virus type 1 group M subtype B, UniProt P03366); test: Anti-HIV-1 RT assay (recombinant enzyme); format: biochemical; conditions: for inhibition at 200 µg/mL: read-out: Anti-HIV-1 RT % Inhibition at 200 μg/ml
T1 construct: made in house; host or cells: Escherichia coli

HIV-1 (strain LAV-1) = test: microbe, parasite or virus in culture; format: cell-based; conditions: for EC50: Human immunodeficiency virus 1, PBMC, human PBM cells infected with HIV-1 (strain LAV), read-out: Ant-HIV-1 in PBM cells EC50
[13] = tested on: Madin Darby canine kidney (MDCK) cells; conditions: Influenza A (H3N2) test
in vitro [14] = conditions: dog
in vitro [15] = conditions: dog, Neutral Red IC50 (cytotoxic)
in vitro [16] = conditions: human
in vitro [17] = conditions: African green monkey, Neutral Red IC50 (cytotoxic)
in vitro [18] = conditions: human; remark: listed apart in the source
in vitro [19] = conditions: human; remark: listed apart in the source
HCMV = HCMV CPE inhibition in HFF cells
HSV-1 = HSV-1 CPE inhibition in HFF cells
HSV-2 = HSV-2 CPE inhibition in HFF cells
VZV = VZV plaque reduction assay in HFF cells
[20] = Cytotoxicity by neutral red dye uptake, A549 cells; conditions: human, A549 cells (toxicity control wells)
[21] = Cytotoxicity by neutral red dye uptake, MA-104 cells; conditions: African green monkey, MA-104 cells (toxicity control wells), Neutral Red IC50 (cytotoxic), Respiratory Syncytial Virus test
Hepatitis B Virus (HBV) = test: Inhibition of HBV replication in 2.2.15 cells, extracellular (virion) HBV DNA; conditions: Hepatitis B virus, 216 h;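 note: extracellular virion HBV DNA in culture medium measured by slot blot hybridization with a 32P-labeled HBV probe, quantified against HBV DNA standards, after 9 days of daily dosing, compared with day 0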
[22] = Cytotoxicity in uninfected PHA-stimulated human PBM cells; conditions: human
human PBM cells = test: as above
[23] = Anti-HIV-1 RT IC50, values in parentheses or in words
[24] = HIV-1 RT IC50 (50% inhibition dose)

For O=c1cc(-c2ccc(O)c(-c3c(O)cc(O)c4c(=O)cc(-c5ccc(O)cc5)oc34)c2)oc2cc(O)cc(O)c12 [Amentoflavone (1), amentoflavone], the EC50 [1] was 3.1 µg/mL (≈ 5.76 µM), the EC50 [2] was 5.3 µg/mL (≈ 9.84 µM) and the EC50 [3] was 4.3 µg/mL (≈ 7.99 µM). The EC50 [4] was 6.5 µg/mL (≈ 12.1 µM), the EC50 (Influenza B Panama/45/90) was 0.56 µg/mL (≈ 1.04 µM) and the EC50 (Measles Virus [5]) was < 40 µg/mL. For the same compound, the EC50 (Measles Virus [6]) was < 20 µg/mL, the EC50 (Adenovirus Type 5 [7]) was > 100 µg/mL and the EC50 (Adenovirus Type 5 [8]) was > 100 µg/mL. For the same compound, the EC50 [9] was > 100 µg/mL, the EC50 [10] was ~32 µg/mL (≈ 59.4 µM) and the EC50 [11] was ~10 µg/mL (≈ 18.6 µM). The EC50 [12] was ~21 µg/mL (≈ 39 µM), the IC50 (HIV-1 RT; [23]) was 119 µM and the IC50 (HIV-1 RT; [24]) was 119 µM. For the same compound, the inhibition at 200 µg/mL (HIV-1 RT) was 97.3%, the EC50 (HIV-1 (strain LAV-1)) was > 10.9 µM and the “CPE Inhibition IC50 (cytotoxic)” value [13] was >100 µg/mL. For the same compound, the IC50 (in vitro [14]; CPE Inhibition IC50 (50% cell inhibitory (cytotoxic) concentration), Influenza A (H1N1) test) was 22 µg/mL (≈ 40.9 µM), the IC50 (in vitro [14]; CPE Inhibition IC50 (cytotoxic), Influenza A (H3N2) test) was > 100 µg/mL and the IC50 (in vitro [14]; CPE Inhibition IC50 (cytotoxic), Influenza B test) was 100 µg/mL (≈ 186 µM). The IC50 (in vitro [15]; Influenza A (H1N1) test) was > 100 µg/mL, the IC50 (in vitro [15]; Influenza A (H3N2) test) was > 100 µg/mL and the IC50 (in vitro [16]) was 18 µg/mL (≈ 33.4 µM). The IC50 (in vitro [17]) was ~56 µg/mL (≈ 104 µM), the IC50 (in vitro [18]) was 35 µM and the CC50 at 14 days (in vitro [19]; HCMV CPE Inhibition CC50) was > 100 µg/mL. The CC50 at 3 days (in vitro [19]; HSV-1 CPE Inhibition CC50) was > 100 µg/mL, the CC50 at 3 days (in vitro [19]; HSV-2 CPE Inhibition CC50) was > 100 µg/mL and the CC50 at 10 days (in vitro [19]; VZV Plaque Reduction CC50) was 9.3 µg/mL (≈ 17.3 µM). For the same compound, the “HCMV SI (CC50/EC50)” value (HCMV; HFF Cells) was >1.9, the EC50 (HCMV; Human betaherpesvirus 5, HFF, read-out: HCMV CPE Inhibition EC50) was 50.8 µg/mL (≈ 94.3 µM) and the “HSV-1 SI (CC50/EC50)” value (HSV-1; HFF Cells) was >5.6. The EC50 (HSV-1; Human alphaherpesvirus 1, HFF, read-out: HSV-1 CPE Inhibition EC50) was 17.9 µg/mL (≈ 33.2 µM), the “HSV-2 SI (CC50/EC50)” value (HSV-2; HFF Cells) was >2.1 and the EC50 (HSV-2; Human alphaherpesvirus 2, HFF, read-out: HSV-2 CPE Inhibition EC50) was 48 µg/mL (≈ 89.1 µM). For the same compound, the “VZV SI (CC50/EC50)” value (VZV; HFF Cells) was <2.3, the EC50 (VZV; Human alphaherpesvirus 3, HFF, read-out: VZV Plaque Reduction EC50) was > 4 µg/mL and the IC50 [20] was 74 µg/mL (≈ 137 µM). For the same compound, the IC50 [21] was ~35 µg/mL (≈ 65 µM), the EC50 (Hepatitis B Virus (HBV); read-out: EC50 (50% effective dose), HBV Virion, 2.2.15 cells, extracellular (virion) HBV DNA, 9 days treatment) was > 100 µM and the EC90 (Hepatitis B Virus (HBV); read-out: EC90 (90% effective dose), HBV Virion, 2.2.15 cells, extracellular (virion) HBV DNA, 9 days treatment) was > 100 µM.

Work on O=C1CC(c2ccc(O)cc2)Oc2c1c(O)cc(O)c2C1C(=O)c2c(O)cc(O)cc2OC1c1ccc(O)cc1 (centres unmarked) [GB-1a(13), GB-1a] yielded an IC50 (HIV-1 RT; [23]) of 236 µM, an IC50 (HIV-1 RT; [24]) of 236 µM and an inhibition at 200 µg/mL (HIV-1 RT) of 86%. For the same compound, the “anti-HIV-1 activity in PBM cells (in words)” value (HIV-1 (strain LAV-1)) was “good activity”, the EC50 (HIV-1 (strain LAV-1)) was 38 µM and the “Selective Index (SI)” value (HIV-1 (strain LAV-1); PBM cells) was 2.3. The IC50 [22] was 88 µM and the “toxicity against uninfected PHA-stimulated human PBM cells (in words)” value (human PBM cells) was “high toxicity”.
